Measured values taken from ChEMBL document CHEMBL4811258, “Potent Antimalarials with Development Potential Identified by Structure-Guided Computational Optimization of a Pyrrole-Based Dihydroorotate Dehydrogenase Inhibitor Series” (J Med Chem, 2021).
Converted amounts (≈) assume the structure as drawn. Each block holds one molecule with its values, some of them ahead of it. The source made the active and inactive calls. No cut-off for these calls is given here.

Assays:
[1] = Inhibition of Plasmodium falciparum DHODH expressed in Escherichia coli BL21-DE3 using L-dihydroorotate as substrate by steady-state DCIP method
[2] = Inhibition of Plasmodium vivax DHODH expressed in Escherichia coli BL21-DE3 using L-dihydroorotate as substrate by steady-state DCIP method
[3] = Oral bioavailability in mouse at 19 mg/kg; format: ADME, organism-based; conditions: in vivo
[4] = test system: Plasmodium falciparum
[5] = biological target: Dihydroorotate dehydrogenase (quinone), mitochondrial (Homo sapiens, UniProt Q02127); format: ADME
[6] = Lipophilicity, logD of compound at pH 7.4; format: physicochemical; conditions: buffer
[7] = test system: Plasmodium falciparum; assay: microbe, parasite or virus in culture; conditions: 3D7, 72 h
[8] = biological target: Dihydroorotate dehydrogenase (quinone), mitochondrial (Rattus norvegicus, UniProt Q63707); assay: Inhibition of rat DHODH up to 100 uM
[9] = biological target: Dihydroorotate dehydrogenase (quinone), mitochondrial (Mus musculus, UniProt O35435); assay: Inhibition of mouse DHODH up to 100 uM
[10] = Inhibition of dog DHODH up to 100 uM; set-up: species or system Canis lupus familiaris
[11] = test system: L1210; assay: Cytotoxicity against mouse L1210 cells; format: cell-based
[12] = test system: HepG2; assay: Cytotoxicity against human HepG2 cells; format: cell-based
[13] = Mutagenicity in Salmonella typhimurium by Ames test; format: toxicity; conditions: salmonella enterica subsp. enterica serovar typhimurium
[14] = test system: Plasmodium falciparum; assay: Antimalarial activity against Plasmodium falciparum 3D70087/N9 infected in orally dosed NOD-SCID IL2Rgamma null mouse assessed as parasitemia level in human red blood cells at 10 to 100 mg/kg, po administered days after 1 day post infection twice daily for 6 days measured on day 7 by flow cytometry; format: functional, organism-based; conditions: dose 10-100 mg/kg
[15] = biological target: Albumin (Bos taurus, UniProt P02769); assay: Binding affinity to bovine serum albumin by Albumax assay; format: ADME; conditions: cattle, isolated protein
[16] = Binding affinity to microsome (unknown origin); format: ADME; conditions: microsomes
[17] = Intrinsic clearance in mouse liver microsomes at 1 uM measured up to 4 hrs by LC-MS analysis; format: ADME, Microsome
[18] = Unbound intrinsic clearance in mouse liver microsomes at 1 uM measured up to 4 hrs by LC-MS analysis; format: ADME, Microsome
[19] = Plasma clearance in Swiss mouse at 1 mg/kg, iv measured up to 24 hrs by LC-MS analysis; format: ADME, organism-based
[20] = Volume of distribution at steady state in Swiss mouse at 1 mg/kg, iv measured up to 24 hrs by LC-MS analysis; format: ADME, organism-based; conditions: in vivo, read-out: Vdss
[21] = Half life in Swiss mouse at 10 mg/kg, po measured up to 24 hrs by LC-MS analysis; format: ADME, organism-based; conditions: in vivo
[22] = Tmax in Swiss mouse at 10 mg/kg, po measured up to 24 hrs by LC-MS analysis; format: ADME, organism-based; conditions: in vivo
[23] = Cmax in Swiss mouse at 10 mg/kg, po measured up to 24 hrs by LC-MS analysis; format: ADME, organism-based; set-up: route oral, dose 10 mg/kg, time <=24; conditions: in vivo
[24] = AUC (0 to infinity) in Swiss mouse at 10 mg/kg, po measured up to 24 hrs by LC-MS analysis; format: ADME, organism-based; set-up: route oral, dose 10 mg/kg, time <=24; conditions: in vivo
[25] = Oral bioavailability in Swiss mouse at 10 mg/kg measured up to 24 hrs by LC-MS analysis; format: ADME, organism-based; conditions: in vivo
[26] = Plasma clearance in Sprague-Dawley rat at […], iv measured up to 24 hrs; format: ADME, organism-based; conditions: dose 2.6 mg/kg
[27] = Volume of distribution at steady state in Sprague-Dawley rat at […], iv measured up to 24 hrs; format: ADME, organism-based; conditions: in vivo, dose 2.6 mg/kg, read-out: Vdss
[28] = Apparent half life in Sprague-Dawley rat at 19 mg/kg, po measured up to 24 hrs; format: ADME, organism-based; conditions: in vivo, read-out: t1/2(app) (converted)
[29] = Tmax in Sprague-Dawley rat at 19 mg/kg, po measured up to 24 hrs; format: ADME, organism-based; conditions: in vivo
[30] = Cmax in Sprague-Dawley rat at 19 mg/kg, po measured up to 24 hrs; format: ADME, organism-based; set-up: route oral, dose 19 mg/kg, time <=24; conditions: in vivo
[31] = AUC (0 to infinity) in Sprague-Dawley rat at 19 mg/kg, po measured up to 24 hrs; format: ADME, organism-based; set-up: route oral, dose 19 mg/kg, time <=24; conditions: in vivo
[32] = Oral bioavailability in Sprague-Dawley rat at 19 mg/kg measured up to 24 hrs; format: ADME, organism-based; conditions: in vivo
[33] = test system: Plasmodium falciparum; assay: Antiplasmodial activity against Plasmodium falciparum 3D7 Uganda infected in human erythrocytes assessed as parasite killing using albumax media measured after 72 hrs by SYBR Green assay; format: functional, organism-based; conditions: 3D7, 72 h
[34] = test system: Plasmodium falciparum; assay: Antiplasmodial activity against Plasmodium falciparum Dd2 Uganda infected in human erythrocytes assessed as parasite killing using albumax media measured after 72 hrs by SYBR Green assay; format: functional, organism-based; conditions: Dd2, 72 h
[35] = test system: Plasmodium falciparum; assay: Antiplasmodial activity against Plasmodium falciparum Uganda field isolated from patients infected in human erythrocytes assessed as parasite killing using albumax media measured after 72 hrs by SYBR Green assay; format: functional, organism-based
[36] = test system: Plasmodium falciparum; assay: Antimalarial activity against Plasmodium falciparum 3D70087/N9 infected in orally dosed NOD-SCID IL2Rgamma null mouse assessed as parasitemia level administered days after 3 post infection once daily for 4 days measured on day 7 by flow cytometry; format: functional; conditions: time 4 day
[37] = Unbound AUC in orally dosed NOD-SCID IL2Rgamma null mouse infected with Plasmodium falciparum 3D70087/N9 administered days after 3 post infection once daily for 4 days measured on day 7 by flow cytometry; format: ADME, organism-based; conditions: in vivo, po, 96 h, time 4 day
[38] = test system: Plasmodium falciparum; assay: Antimalarial activity against Plasmodium falciparum 3D70087/N9 infected in NOD-SCID IL2Rgamma null mouse assessed as parasitemia level at 10 mg/kg, po administered days after 3 post infection once daily for 4 days measured on day 7 by flow cytometry; format: functional, organism-based; conditions: time 4.0 day
[39] = test system: Plasmodium falciparum; assay: Antimalarial activity against Plasmodium falciparum 3D70087/N9 infected in orally dosed NOD-SCID IL2Rgamma null mouse assessed as parasitemia level in human red blood cells at 16.7 mg/kg, po administered days after 1 day post infection twice daily for 6 days measured on day 7 by flow cytometry; format: functional, organism-based; conditions: time 6.0 day
[40] = physchem; conditions: FaSSGF, pH 1.6
[41] = physchem; conditions: FaSSIF, pH 6.5
[42] = physchem; conditions: FeSSIF, pH 5.8
[43] = physchem; conditions: PBS, pH 7.4
[44] = in vitro; conditions: human, plasma
[45] = in vitro; conditions: rat, plasma
[46] = in vitro; conditions: mouse, plasma
[47] = in vitro; conditions: human, caco-2, pH 7.4
[48] = in vitro; conditions: human, caco-2, pH 7.4; remark: listed apart in the source
[49] = biological target: Cytochrome P450 3A4 (Homo sapiens, UniProt P08684)
Chain of Cytochrome P450 3A4 (P08684 whole entry): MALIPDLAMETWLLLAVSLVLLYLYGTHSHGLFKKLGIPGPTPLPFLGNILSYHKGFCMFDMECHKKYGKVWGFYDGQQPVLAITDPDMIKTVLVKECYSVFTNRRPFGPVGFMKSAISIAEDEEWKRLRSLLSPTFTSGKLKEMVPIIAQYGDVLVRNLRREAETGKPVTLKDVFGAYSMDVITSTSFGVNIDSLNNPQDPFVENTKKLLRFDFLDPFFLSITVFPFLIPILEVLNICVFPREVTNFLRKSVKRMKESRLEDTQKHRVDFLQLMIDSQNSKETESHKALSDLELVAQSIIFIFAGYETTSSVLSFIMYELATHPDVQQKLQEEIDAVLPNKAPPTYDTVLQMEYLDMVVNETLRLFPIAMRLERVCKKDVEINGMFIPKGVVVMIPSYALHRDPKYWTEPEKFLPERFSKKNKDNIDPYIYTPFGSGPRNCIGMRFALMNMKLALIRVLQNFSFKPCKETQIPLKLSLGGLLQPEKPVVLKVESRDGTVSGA

Chain of Dihydroorotate dehydrogenase (quinone), mitochondrial (Homo sapiens, UniProt Q02127) (Q02127 whole entry): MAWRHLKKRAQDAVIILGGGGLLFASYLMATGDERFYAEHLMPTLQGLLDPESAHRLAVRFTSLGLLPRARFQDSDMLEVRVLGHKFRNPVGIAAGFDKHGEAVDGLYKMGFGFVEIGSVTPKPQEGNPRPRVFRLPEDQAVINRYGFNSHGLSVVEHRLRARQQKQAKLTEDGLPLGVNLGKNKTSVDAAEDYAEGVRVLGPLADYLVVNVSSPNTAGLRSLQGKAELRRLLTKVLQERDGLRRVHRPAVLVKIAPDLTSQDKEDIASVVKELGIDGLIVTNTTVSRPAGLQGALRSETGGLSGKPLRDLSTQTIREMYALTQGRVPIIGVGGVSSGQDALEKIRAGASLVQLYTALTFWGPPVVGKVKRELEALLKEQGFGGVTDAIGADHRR
Chain of Dihydroorotate dehydrogenase (quinone), mitochondrial (Rattus norvegicus, UniProt Q63707) (Q63707 whole entry): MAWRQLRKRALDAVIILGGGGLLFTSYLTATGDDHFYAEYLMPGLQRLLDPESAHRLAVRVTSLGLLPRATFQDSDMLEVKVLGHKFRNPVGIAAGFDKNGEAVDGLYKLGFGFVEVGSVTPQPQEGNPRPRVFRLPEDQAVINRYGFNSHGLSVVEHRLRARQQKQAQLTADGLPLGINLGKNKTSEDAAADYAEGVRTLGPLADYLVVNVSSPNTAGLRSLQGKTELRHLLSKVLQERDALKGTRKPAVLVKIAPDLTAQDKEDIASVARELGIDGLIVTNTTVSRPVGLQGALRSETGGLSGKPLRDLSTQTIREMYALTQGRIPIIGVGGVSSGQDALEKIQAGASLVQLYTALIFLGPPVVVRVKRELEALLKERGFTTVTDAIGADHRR
Chain of Dihydroorotate dehydrogenase (quinone), mitochondrial (Mus musculus, UniProt O35435) (O35435 whole entry): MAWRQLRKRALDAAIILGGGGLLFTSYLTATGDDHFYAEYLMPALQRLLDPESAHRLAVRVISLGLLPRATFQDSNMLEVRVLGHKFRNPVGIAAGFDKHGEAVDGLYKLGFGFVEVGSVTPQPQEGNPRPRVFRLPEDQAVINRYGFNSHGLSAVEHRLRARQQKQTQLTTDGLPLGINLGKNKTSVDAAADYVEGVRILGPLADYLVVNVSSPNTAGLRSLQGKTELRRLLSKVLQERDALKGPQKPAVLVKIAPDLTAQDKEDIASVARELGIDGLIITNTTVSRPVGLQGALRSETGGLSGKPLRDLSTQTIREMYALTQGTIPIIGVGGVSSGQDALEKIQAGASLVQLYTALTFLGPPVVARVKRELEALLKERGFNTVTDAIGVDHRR
Chain of Albumin (P02769 whole entry): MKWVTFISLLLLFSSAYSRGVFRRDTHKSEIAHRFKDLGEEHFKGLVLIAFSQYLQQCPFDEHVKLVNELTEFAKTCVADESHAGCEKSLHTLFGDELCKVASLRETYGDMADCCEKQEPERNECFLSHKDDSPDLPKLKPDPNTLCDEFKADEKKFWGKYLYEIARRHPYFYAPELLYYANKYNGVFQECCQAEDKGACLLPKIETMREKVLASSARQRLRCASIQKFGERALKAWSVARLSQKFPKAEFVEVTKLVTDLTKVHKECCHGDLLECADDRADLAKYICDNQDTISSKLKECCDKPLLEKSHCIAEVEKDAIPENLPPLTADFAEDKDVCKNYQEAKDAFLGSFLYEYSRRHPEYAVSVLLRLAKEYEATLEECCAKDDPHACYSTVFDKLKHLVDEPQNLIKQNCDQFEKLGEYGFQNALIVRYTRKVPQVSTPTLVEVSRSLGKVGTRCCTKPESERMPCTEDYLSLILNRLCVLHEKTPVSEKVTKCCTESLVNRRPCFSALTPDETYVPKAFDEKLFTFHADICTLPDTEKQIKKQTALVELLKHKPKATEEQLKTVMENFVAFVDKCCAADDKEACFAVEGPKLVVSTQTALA

Structure (SMILES): Cc1c(C2(c3ccc(C(F)(F)F)nc3)CC2)c[nH]c1C(=O)NC(C)c1cc(C(N)=O)[nH]n1 (stereo in doubt; form 1)
- IC50 [1]: 0.14 µM
- IC50 [2]: 0.17 µM
- F [3]: 18%
- EC50 [4]: 0.046 µM

Structure (SMILES): Cc1c(Cc2cccc3ccncc23)c[nH]c1C(=O)NCC(F)(F)F
- IC50 [1]: 0.035 µM
- IC50 [2]: 0.017 µM
- IC50 [5]: > 100 µM
- logD [6]: < 3.4
- EC50 [7]: 0.0096 µM

Structure (SMILES): Cc1c(Cc2cccc3ccncc23)c[nH]c1C(=O)NC1CC1
- IC50 [1]: 0.011 µM
- IC50 [2]: 0.016 µM
- IC50 [5]: > 100 µM
- logD [6]: < 3.4
- EC50 [7]: 0.0022 µM

- inhibition (INH) [8]: Not Active
- inhibition (INH) [9]: Not Active
- inhibition (INH) [10]: Not Active
Structure (SMILES): Cc1c(C2(c3ccc(C(F)(F)F)c(C#N)c3)CC2)c[nH]c1C(=O)NC(C)c1nc[nH]n1 (stereo in doubt; form 1) [listing 1 of 2 here]
- Activity [11]: Non-Toxic
- Activity [12]: Non-Toxic
- Activity [13]: Non-Toxic

Structure (SMILES): Cc1c(C2(c3ccc(C(F)(F)F)c(C#N)c3)CC2)c[nH]c1C(=O)NC(C)c1nc[nH]n1 (stereo in doubt; form 1) [listing 2 of 2 here]
- Activity [14]: Active

Structure (SMILES): Cc1cc(Nc2ccc(S(F)(F)(F)(F)F)cc2)n2nc(C(F)(F)F)nc2n1
- IC50 [1]: 0.03 µM
- Activity [15]: 83.1%
- Activity [16]: 71.7%
- Intrinsic clearance [17]: < 7 µL/min/mg
- CL free [18]: < 25 µL/min/mg
- clearance [19]: 8.2 mL/min/kg
- Vd [20]: 2.3 L/kg
- half-life [21]: 2.5 h
- Tmax [22]: 1.2 h
- Cmax [23]: 3.1 µM
- AUC(0-inf) [24]: 22.8 µM·h
- bioavailability [25]: 46%
- clearance at 24 h [26]: 6.5 mL/min/kg
- Vd at 24 h [27]: 5.9 L/kg
- half-life [28]: 16 h
- Tmax [29]: 7 h
- Cmax [30]: 4 µM
- AUC(0-inf) [31]: 120 µM·h
- bioavailability [32]: 57%
- EC50 [33]: 0.0029 µM
- EC50 [34]: 0.0029 µM
- EC50 [35]: 0.0037 µM
- ED50 [36]: 5.6 mg/kg
- fAUC [37]: 0.85 µM·h
- Activity [38]: Active
- Activity [39]: Active
- solubility at 1 h [40]: 6.8 µg/mL (≈ 16.2 µM)
- solubility at 5 h [41]: 5.1 µg/mL (≈ 12.2 µM)
- solubility at 5 h [42]: 27.6 µg/mL (≈ 65.8 µM)
- solubility at 5 h [43]: 2 µg/mL (≈ 4.77 µM)
- fraction unbound [44]: 0.002
- fraction unbound [45]: 0.025
- fraction unbound [46]: 0.03
- Papp A→B [47]: 54 ×10⁻⁶ cm/s
- Papp B→A [48]: 49 ×10⁻⁶ cm/s
- EC50 [7]: 0.006 µM

Structure (SMILES): Cc1c(Cc2ccc(F)c3ccncc23)c[nH]c1C(=O)NC1CC1
- IC50 [1]: 0.0061 µM
- IC50 [2]: 0.004 µM
- IC50 [5]: > 100 µM
- logD [6]: < 3.4
- EC50 [7]: 0.00092 µM

Structure (SMILES): Cc1c(Cc2ccc(F)c3ccncc23)c[nH]c1C(=O)N1CC(F)(F)C1
- IC50 [1]: 0.011 µM
- IC50 [2]: 0.0065 µM
- IC50 [5]: > 100 µM
- logD [6]: < 3.4
- EC50 [7]: 0.0034 µM

Structure (SMILES): COc1ccc(Cc2c[nH]c(C(=O)NC3CC3)c2C)c2cnccc12
- IC50 [1]: 0.023 µM
- IC50 [2]: 0.021 µM
- IC50 [5]: > 50 µM
- logD [6]: < 3.4
- EC50 [7]: 0.0017 µM

Structure (SMILES): Cc1c(C2(c3ccc(C(F)(F)F)nc3)CC2)c[nH]c1C(=O)NC(C)c1c[nH]cn1 (stereo in doubt; form 1)
- TDI [49]: Active
- EC50 [7]: 43 µM

Structure (SMILES): Cc1c(Cc2cccc3ccncc23)c[nH]c1C(=O)N1CC(F)(F)C1
- IC50 [1]: 0.016 µM
- IC50 [2]: 0.0077 µM
- IC50 [5]: > 100 µM
- logD [6]: < 3.4
- EC50 [7]: 0.0038 µM
